This passage reports IC50 results from patent publication US12570607B2, “Compound as cyclin-dependent kinase 9 inhibitor and use thereof” (CSPC Zhongqi Pharmaceutical Technology (Shijiazhuang) Co., …, priority 2019, dated 2026).

This assay has as its system MV4;11 cells. In words: In vitro MV4;11 cell proliferation inhibition (MTT method). Type of assay: cell-based. The following applies: Homo sapiens. The source says:
The in vitro inhibitory effect of the synthesized compounds on cell proliferation was investigated.
The trade name of MTT was thiazole blue, which was a tetrazolium salt of a dye that could accept hydrogen atoms. […] Dimethyl sulfoxide could dissolve blue-purple complexes in cells, and its light absorption value could be measured at 490-550 nm wavelength with an enzyme-linked immunosorbent detector, which could indirectly reflect the number of cells. Within a certain range of the cell number, the amount of MTT crystals formed was proportional to the number of cells. The drug to be tested was successively diluted to different concentrations and added to a 96-well plate. The OD value was determined after the drug acted for a certain time. The size of the OD value could reflect the number of living cells, and its IC50 value was calculated with SPSS19.0.
Suspension of cells: Cells were […] by centrifugation and counted. A certain density of cell suspension was formulated with a complete culture medium, blown evenly, inoculated on a 96-well plate, 100 μL per well, and then cultured in a CO2 incubator.
An appropriate amount of the drug was added to a calculated amount of DMSO and dissolved. The resulting mixture was dispensed and stored at −20° C. The formulation concentration was 10 mM.
The stock solution of the compound having a concentration of 10 mM was diluted into different concentrations (8 concentrations) of solutions of the compound in DMSO (3-fold dilution, 20×final concentration). Each concentration of solutions (10 μL) of the compound in DMSO was respectively diluted with cell culture media (90 μL) to formulate working solutions (2×final concentration). Each concentration of working solutions (100 μL) of the compound was added to the 96-well plate inoculated with cells (1×final concentration, the highest final concentration is 1000 nM). The resulting plate continued to be cultured in a CO2 incubator.
The 96-well plate was taken out, and the density of cells was observed under a microscope. The test was performed with the MTT method.
MTT method: 20 μL of MTT was added to each well; the plate was cultured for about 4 hours in the incubator; the liquid in the well was discarded; 150 μL of DMSO was added into each well; the plate was placed in a shaker and shaken for 5-10 minutes, and the test was performed with a microplate reader at a wavelength of 550 nm. 7. Data analysis: IC50 value of the drug was calculated with SPSS19.0 statistical software.

By IC50 is commonly meant the concentration at which inhibition is half-maximal. A lower IC50 goes with greater potency. Compound `COc1cc(F)ccc1-c1cc(NC(=O)N2CCC[C@@H](NC(C)=O)C2)ncc1F` [Compound 70] came in with an IC50 of 259 nM. On to `COc1cc(F)ccc1-c1cc(NC(=O)[C@H]2CCC[C@@H](NC(=O)[C@@H](CC(C)C)NC(C)=O)C2)ncc1F` [Compound 59], for which the IC50 was found to be 6 nM. In turn, `CC(=O)N[C@@H]1CCC[C@H](C(=O)Nc2cc(-c3ccc(F)nc3F)c(F)cn2)C1` [Compound 20] showed a half-inhibitory concentration (IC50) of 67 nM. On to `COc1cc(O)ccc1-c1cc(NC(=O)[C@H]2CCC[C@@H](NC(C)=O)C2)ncc1F` [Compound 15], for which it took 9 nM to reach half-maximal inhibition (IC50).

In turn, `CCOCC(=O)N[C@@H]1CCC[C@H](C(=O)Nc2cc(-c3ccc(F)cc3OC)c(F)cn2)C1` [Compound 46] had a 50% inhibitory concentration (IC50) of 17 nM.

`COc1cc(F)ccc1-c1cc(NC(=O)[C@H]2CCC[C@@H](NC(=O)Nc3cc(C)no3)C2)ncc1F` [Compound 41]: the IC50 was 45 nM.

Take `COc1cc(F)ccc1-c1cc(NC(=O)[C@H]2CCC[C@@H](NC(=O)/C=C/CN(C)C)C2)ncc1F` [Compound 66]: the concentration for half-maximal inhibition (IC50) came out at 34 nM. The same measure for `CC(=O)N[C@@H]1CCC[C@H](C(=O)Nc2cc(-c3cccc4[nH]ccc34)c(F)cn2)C1` [Compound 22]: 36 nM; for `COc1cc(F)ccc1-c1cc(NC(=O)[C@H]2CCC[C@@H](NC(=O)C3(F)CC3)C2)ncc1F` [Compound 54]: 12 nM; for `COc1cc(F)ccc1-c1cc(NC(=O)[C@H]2CCC[C@@H](Nc3nccs3)C2)ncc1F` [Compound 69]: 28 nM. The same measure for `COc1cc(F)ccc1-c1cc(NC(=O)[C@H]2CCC[C@@H](NC(=O)C3(C#N)CN(C)C3)C2)ncc1F` [Compound 77]: 21 nM; for `COc1cc(F)ccc1-c1cc(NC(=O)[C@H]2CCC[C@@H](NC(=O)C3(C(F)(F)F)CC3)C2)ncc1F` [Compound 55]: 14 nM; for `COc1cc(F)ccc1-c1cc(NC(=O)[C@H]2CCC[C@@H](NC(=O)C3(C#N)CCOCC3)C2)ncc1F` [Compound 35]: 32 nM. Take `COc1cc(F)ccc1-c1cc(NC(=O)[C@H]2CCC[C@@H](NC(=O)C3(C#N)CCC3)C2)ncc1F` [Compound 34]: inhibition was half-maximal at 21 nM (IC50). The result for `COc1cc(F)ccc1-c1cc(NC(=O)[C@H]2CCC[C@@H](NC(=O)COC(C)=O)C2)ncc1F` [Compound 47] reads 13 nM; that for `C=CC(=O)N[C@@H]1CCC[C@H](C(=O)Nc2cc(-c3ccc(F)cc3OC)c(F)cn2)C1` [Compound 64], 9 nM; that for `COc1cc(F)ccc1-c1cc(NC(=O)[C@H]2CCC[C@@H](NC(=O)C3CC3)C2)ncc1F` [Compound 62], 6 nM. The same measure for `COc1cc(F)ccc1-c1cc(NC(=O)[C@H]2CCC[C@@H](NC(=O)C3(C#N)CCN(C)CC3)C2)ncc1F` [Compound 82]: 21 nM; for `CC(=O)N[C@@H]1CCC[C@H](C(=O)Nc2cc(-c3ccnc4[nH]ccc34)c(F)cn2)C1` [Compound 23]: 23 nM.

`COc1cc(F)ccc1-c1cc(NC(=O)[C@H]2CCC[C@@H](NC(=O)CN(C)C)C2)ncc1F` [Compound 40] gave an IC50 of 8 nM. The result for `COc1cc(F)ccc1-c1cc(NC(=O)[C@H]2CCC[C@@H](NC(=O)N(C)C)C2)ncc1F` [Compound 38] reads 10 nM; that for `CC(=O)N[C@@H]1CCC[C@H](C(=O)Nc2cc(-c3ccnc4c3ccn4C)c(F)cn2)C1` [Compound 24], 119 nM; that for `COc1cc(F)c(F)cc1-c1cc(NC(=O)[C@H]2CCC[C@@H](NS(C)(=O)=O)C2)ncc1F` [Compound 26], 89 nM. With `COc1cc(F)ccc1-c1cc(NC(=O)[C@H]2CCC[C@@H](NC(=O)C(F)(F)F)C2)ncc1F` [Compound 42], half-maximal inhibition (IC50) was put at 17 nM. `COc1cc(F)ccc1-c1cc(NC(=O)[C@H]2CCC[C@@H](NC(=O)C3COC3)C2)ncc1F` [Compound 52]: inhibition was half-maximal at 8 nM (IC50).

Compound `COc1cc(F)ccc1-c1cc(NC(=O)[C@H]2CCC[C@@H](NC(=O)C(=O)C3CC3)C2)ncc1F` [Compound 63] registered a concentration for half-maximal inhibition (IC50) of 96 nM. The result for `COc1cc(F)ccc1-c1cc(NC(=O)[C@H]2CCC[C@@H](NC(C)=O)C2)ncc1Cl` [Compound 71] reads 16 nM; that for `COc1cc(F)ccc1-c1cc(NC(=O)[C@H]2CCC[C@@H](NC(=O)CNC(C)=O)C2)ncc1F` [Compound 57], 100 nM; that for `COc1cc(F)ccc1-c1cc(NC(=O)[C@H]2CCC[C@@H](NC(=O)CS)C2)ncc1F` [Compound 81], 67 nM. The same measure for `C#CC(=O)N[C@@H]1CCC[C@H](C(=O)Nc2cc(-c3ccc(F)cc3OC)c(F)cn2)C1` [Compound 65]: 6 nM.

As for `COc1cc(F)ccc1-c1cc(NC(=O)[C@H]2CCC[C@@H](NC(=O)C3(O)CC3)C2)ncc1F` [Compound 51], the midpoint of inhibition, the IC50, lay at 13 nM. The same measure for `COc1cc(F)ccc1-c1cc(NC(=O)[C@H]2CCC[C@@H](NC(=O)CC3CC3)C2)ncc1F` [Compound 61]: 48 nM; for `COc1cc(F)ccc1-c1cc(NC(=O)[C@H]2CCC[C@@H](NC(=O)C3CCN(C)CC3)C2)ncc1F` [Compound 60]: 12 nM.

`COc1cc(F)ccc1-c1cc(NC(=O)[C@H]2CCC[C@@H](NC(=O)CN)C2)ncc1F` [Compound 56] displayed a 50% inhibitory concentration (IC50) of 20 nM. This IC50 lies about 1.7-fold higher than the previous one.

Compound `COc1cc(F)ccc1-c1cc(NC(=O)[C@H]2CCC[C@@H](NC(=O)C(C)(C)O)C2)ncc1F` [Compound 83] gave an IC50 of 14 nM. The compound `COc1cc(F)ccc1-c1cc(NC(=O)[C@H]2CCC[C@@H](NC(=O)CCO)C2)ncc1F` [Compound 50] showed a 50% inhibitory concentration (IC50) of 37 nM. Take `COc1cc(F)ccc1-c1cc(NC(=O)[C@H]2CCC[C@@H](NC(=O)C3(C)CC3)C2)ncc1F` [Compound 53]: the midpoint of inhibition, the IC50, lay at 10 nM. The result for `COc1c(-c2cc(NC(=O)[C@H]3CCC[C@@H](NC(C)=O)C3)ncc2F)ccc(F)c1F` [Compound 6] reads 179 nM; that for `COc1cc(F)ccc1-c1cc(NC(=O)[C@H]2CCC[C@@H](NC(=O)[C@H](CC(C)C)NC(C)=O)C2)ncc1F` [Compound 58], 86 nM.

With `COc1cc(F)ccc1-c1cc(NC(=O)[C@H]2CCC[C@@H](NC(=O)[C@@H](C)O)C2)ncc1F` [Compound 49], the IC50 stood at 72 nM.
